Entries after “also recorded” stand apart in the source; their conditions may differ. Where a name gives a salt, the structure may show the parent alone.
Tests used:
[1] = system: GHD children; test: Phase IIb therapeutic study in pediatric GH deficiency: height velocity after 6 months of treatment; assay type: in vivo, human; conditions: for Delta Height Velocity, Biological Age (BA) / Delta Height Velocity, Chronological Age (CA): general population of GHD children; for height velocity in the LOW group compared with the EQUAL group, in words: 6 months of treatment; for growth (height velocity) response, GH compared with MK-0677, in words: 6 months
Protocol: In the Phase IIb study, 24 children were treated with 0.8 mg/kg/d MK-0677. […] This can also be expressed as a height velocity standard deviation (SD) (or standard deviations-also SD) at baseline of 0.4±2.1 and 3.5±2.0 at 6 months. […] Change in height velocity SD for chronological age was 0.4±2.1 for placebo and 3.5±2.0 for treatment with MK-0677 after 6 months at a dose of 0.8 mg/kg/d. Twenty of the 22 placebo-treated children were then treated with standard Growth Hormone (GH) treatment (daily subcutaneous injection of rhGH, 0.043 mg/kg/day). […] Therapeutic Study in Pediatric GH Deficiency: A Phase IIb study was run to determine whether or not MK-0677 could be used to treat pediatric GHD. MK-0677 was compared against placebo and rhGH injections according to the following protocol. Bone age was determined using the atlas matching method of Greulich and Pyle. Protocol: 6 months of once-daily oral sucrose formulation solution. Tables 6A-6E show the height velocity for EQUAL growth potential children treated with either 0.8 mg/kg/daily po or 0.4 mg/kg/daily po MK-0677 compared with rhGH (0.3 mg/kg/week; ˜42 μg/kg/daily sc injection). […] Values are mean (SD). Tables 7A-7C compare the height velocity for low growth potential patients (LOW) with equivalent growth potential compared to rhGH (EQUAL). Values are mean (SD).

[2] = system: hypothalamic-pituitary GH axis; test: MK-0677 challenge test: peak serum GH after a single oral dose of MK-0677; assay type: in vivo, human; conditions: for Peak GH response to MK-0677: baseline; for Peak GH to MK-0677: single dose 0.8 mg/kg
Protocol: Testing for GH secretion with MK-0677: A single, oral dose of MK-0677 is administered to a patient and sufficient blood samples are taken prior to and after administration (e.g., 15 minutes before and t=0, 30, 60, 90, and 120 minutes after administration) to measure the peak GH secretion. An example of the amount of MK-0677 administered is 0.8 mg/kg. In an aspect, the patient being tested will have fasted overnight (abstinence from all food and drink but water). [table] Subjects will report to the clinic in the morning after an overnight fast from all food and drink except water. A catheter will be inserted approximately 1 hour before the administration of MK 0677. Two baseline measures will be taken a t=−15 minutes and t=0 minutes (time at which subject is administered the dose). Subjects will be given a dose of 0.8 mg/kg MK-0677 as 2-mg tablets to be taken orally. Blood samples will be taken subsequently at t=30, 60, 90, 120 minutes. In addition at t=−15 and 120 minutes, samples will be drawn for a serum chemistry panel. At the conclusion of the test, the catheter will be removed. All blood samples will be analyzed for GH, prolactin, and cortisol by a core clinical laboratory.

[3] = system: GHD children; conditions: cited from earlier work
[4] = Adequate GH Secretion Potential, MK-0677 0.8 mg/kg/d (N = 15)
[5] = Low GH Secretion Potential, MK-0677 0.8 mg/kg/d (N = 9)
[6] = Adequate GH Secretion Potential, GH 0.3 mg/kg/wk (N = 15)
[7] = GH after placebo 0.3 mg/kg/week (n = 20)
[8] = Low GH Secretion Potential, GH 0.3 mg/kg/wk (N = 5)

## CC(C)(N)C(=O)N[C@H](COCc1ccccc1)C(=O)N1CCC2(CC1)CN(S(C)(=O)=O)c1ccccc12 [MK-0677, Ibutamoren mesylate]
[1]; 0.4 mg/kg/d (n = 22)
  Delta Height Velocity, Biological Age (BA): 2.6 (1.5) standard deviations
  Delta Height Velocity, Chronological Age (CA): 2.6 (1.7) standard deviations
[1]; 0.8 mg/kg/d (n = 22)
  Delta Height Velocity, Biological Age (BA): 3.3 (1.8) standard deviations
  Delta Height Velocity, Chronological Age (CA): 3.5 (2.0) standard deviations
[1]
  height velocity in the LOW group compared with the EQUAL group, in words: lower than with the EQUAL group
[1]; [4]
  Delta height velocity: 3.4 (1.4) cm/year
  Height velocity SD for BA: 3.8 (1.3)
  Height velocity SD for CA: 3.8 (1.7)
[1]; EQUAL (N = 12), 6-Month MK 0.4 mg/kg/day
  Height Velocity: 6.2 (1.8)
[1]; EQUAL (N = 14), 6-Month MK 0.8 mg/kg/day
  Height Velocity: 7.6 (1.3)
[1]; EQUAL patient group (peak GH ≥5 μg/L to MK-0677 and baseline IGF-I >30 μg/L)
  growth (height velocity) response, GH compared with MK-0677, in words: equal to GH treatment; also recorded: does not differ significantly from that to GH; also recorded: equivalent growth response
[1]; LOW (N = 10), 6-Month MK 0.4 mg/kg/day
  Height Velocity: 5.8 (2.1)
[1]; LOW (N = 10), 6-Month MK 0.8 mg/kg/day
  Height Velocity: 5.8 (2.2)
[1]; LOW and EQUAL combined, 6-Month MK 0.4 mg/kg/day (N = 22), mean (SD)
  Height Velocity: 6.0 (1.9)
[1]; LOW and EQUAL combined, 6-Month MK 0.8 mg/kg/day (N = 24), mean (SD)
  Height Velocity: 6.9 (1.9)
[1]; LOW growth potential / severely GH deficient patients
  growth (height velocity) response, GH compared with MK-0677, in words: inadequate growth response; also recorded: less responsive
[1]; [5]
  Delta height velocity: 2.3 (2.0) cm/year
  Height velocity SD for BA: 2.6 (2.4)
  Height velocity SD for CA: 2.9 (2.5)
[1]; equivalent growth potential, after 6 months of MK-677 0.8 mg/kg (N = 14)
  Height Velocity: 7.6 (1.3) cm/year
[1]; low growth potential, after 6 months of MK-677 0.8 mg/kg (N = 10)
  Height Velocity: 5.8 (2.2) cm/year
[1]; patients with adequate GH secretion potential (Table 4B)
  growth response, GH compared with MK-0677, in words: comparable with GH and was not statistically different
[2]; Adequate GH Secretion Potential, group later given Placebo followed by rhGH (N = 15)
  Peak GH response to MK-0677: 39.2 (28.8) μg/L
[2]; Adequate GH Secretion Potential, group later treated with MK-0677 0.8 mg/kg/d (N = 15)
  Peak GH response to MK-0677: 41.3 (27.8) μg/L
[2]; Low GH Secretion Potential, group later given Placebo followed by rhGH (N = 5)
  Peak GH response to MK-0677: 2.9 (0.6) μg/L
[2]; Low GH Secretion Potential, group later treated with MK-0677 0.8 mg/kg/d (N = 9)
  Peak GH response to MK-0677: 3.2 (1.3) μg/L
[2]; equivalent growth potential, Placebo group later switched to rhGH (N = 13)
  Peak GH response to MK-0677: 51.2 (25.3) μg/L
[2]; equivalent growth potential, group later treated with MK-0677 0.8 mg/kg (N = 14)
  Peak GH response to MK-0677: 43.7 (27.1) μg/L
[2]; low growth potential, Placebo group later switched to rhGH (N = 9)
  Peak GH response to MK-0677: 6.7 (5.9) μg/L
[2]; low growth potential, group later treated with MK-0677 0.8 mg/kg (N = 10)
  Peak GH response to MK-0677: 3.6 (1.7) μg/L
[2]; All subjects (73)
  Peak GH to MK-0677: 32 ± 3.5 µg/L
[2]; High Potential (≥5 μg/L), 49 subjects
  Peak GH to MK-0677: 43 ± 30 µg/L
[2]; Low Potential (≤5 μg/L), 24 subjects
  Peak GH to MK-0677: 3.0 ± 1.0 µg/L
[3]; MK-0677 0.8 mg/kg/d, 24 children, Merck Phase IIb study
  growth rate at 6 months: 6.8±2.0 cm/y
[3]; MK-0677 0.8 mg/kg/d, after 6 months
  Change in height velocity SD for chronological age: 3.5±2.0
[3]; MK-0677 0.8 mg/kg/d, baseline to 6 months, 24 children
  change in growth rate: 3.4±2.1 cm/y

## rhGH: recombinant human growth hormone given as daily subcutaneous injection, standard GH therapy
[1]
  height velocity in the LOW group compared with the EQUAL group, in words: greater in the LOW group than in the EQUAL group
[1]; [6]
  Delta height velocity: 4.9 (2.9) cm/year
  Height velocity SD for BA: 4.9 (2.6)
  Height velocity SD for CA: 5.1 (2.8)
[1]; EQUAL (N = 11), 6-Month rhGH
  Height Velocity: 8.8 (1.8)
[1]; [7]
  Delta Height Velocity, Biological Age (BA): 6.2 (3.4) standard deviations
  Delta Height Velocity, Chronological Age (CA): 7.6 (5.6) standard deviations
[1]; LOW (N = 9), 6-Month rhGH
  Height Velocity: 14.0 (4.1)
[1]; LOW and EQUAL combined, 6-Month GH 0.3 mg/kg/week (N = 20), mean (SD)
  Height Velocity: 11.1 (4.0)
[1]; LOW and EQUAL combined, GH (12-Month): 6 months rhGH after 6 months placebo (N = 20), paired T-test table
  Height Velocity: 11.14 (3.96)
[1]; LOW growth potential / severely GH deficient patients, listed as GH
  growth (height velocity) response, GH compared with MK-0677, in words: extremely sensitive to GH; also recorded: increase in height velocity
[1]; [8]
  Delta height velocity: 12.3 (4.4) cm/year
  Height velocity SD for BA: 10.0 (2.2)
  Height velocity SD for CA: 15.1 (5.1)
[1]; equivalent growth potential, after 6 months of GH ~42 μg/kg/day (N = 11)
  Height Velocity: 8.8 (1.8) cm/year
[1]; low growth potential, after 6 months of GH ~42 μg/kg/day (N = 9)
  Height Velocity: 14.0 (4.1) cm/year
[1]; overall patient group, GH 0.3 mg/kg/week sc vs MK-0677 0.8 mg/kg/day oral
  growth (height velocity) response, GH compared with MK-0677, in words: superior to MK-0677
[1]; patients with low GH secretion potential (Table 3B)
  growth response, GH compared with MK-0677, in words: superior
[3]; rhGH 0.043 mg/kg/day daily sc, 20 children after 6 months of placebo
  height velocity SD score for chronological age: 7.6±5.6
[3]; rhGH 0.043 mg/kg/day vs MK-0677 0.8 mg/kg/d
  increase in height velocity SD, GH compared with MK-0677: twice as high
